Data published in publication PMC13083723 (Patterns, 2026).
Structures can show the parent of a compound that is named as a salt. Where two headings read alike, the source gives them in different places.

Experiments:
Vero-E6 cells = test: cells; assay type: cell-based; settings: for activation at 5 µM / activation at 10 µM / activation at 20 µM: Vero C1008, 24 h; for activation at 5 µM: read-out: PLD Effect in % 5 µM; for activation at 10 µM: read-out: PLD Effect in % 10 µM; for activation at 20 µM: read-out: PLD Effect in % 20 µM
SARS-CoV-2 [1] = settings: cited from earlier work; for Vero-E6 CPE inhibition %: 10 µM
SARS-CoV-2 [2] = settings: cited from earlier work; for CaCo2 CPE inhibition %: Caco-2, 20 µM
[3] = Chlorocebus sabaeus, Vero C1008, read-out: PLD EC50
[4] = Chlorocebus sabaeus, Vero C1008, read-out: PLD EC50 µM

| Compound | PLD EC50 µM (Vero-E6 cells) | PLD Effect in % 5 µM (Vero-E6 cells) | PLD Effect in % 10 µM (Vero-E6 cells) | PLD Effect in % 20 µM (Vero-E6 cells) | Vero-E6 CPE inhibition % (SARS-CoV-2 [1]) | Vero-E6 EC50 µM (SARS-CoV-2 [1]) | CaCo2 CPE inhibition % (SARS-CoV-2 [2]) | CaCo2 EC50 µM (SARS-CoV-2 [2]) | activation at 5 µM (Vero-E6 cells; Chlorocebus sabaeus) [%] | activation at 10 µM (Vero-E6 cells; Chlorocebus sabaeus) [%] | activation at 20 µM (Vero-E6 cells; Chlorocebus sabaeus) [%] | EC50 (Vero-E6 cells; [3]) [µM] | EC50 (SARS-CoV-2 [1]; read-out: Vero-E6 EC50) [nM] | EC50 (Vero-E6 cells; read-out: PLD EC50) [µM] | EC50 (Vero-E6 cells; [4]) [µM] |
| --- | --- | --- | --- | --- | --- | --- | --- | --- | --- | --- | --- | --- | --- | --- | --- |
| CN1CCN(c2ccc(C(=O)Nc3n[nH]c4ccc(Cc5cc(F)cc(F)c5)cc34)c(NC3CCOCC3)c2)CC1 [entrectinib (RXDX-101), entrectinib, reference compound] | toxic | toxic | toxic | toxic | toxic | toxic | toxic | toxic |  |  |  |  |  |  |  |
| Cc1ccc(C(=O)N(CCCN)[C@@H](c2nc3cc(Cl)ccc3c(=O)n2Cc2ccccc2)C(C)C)cc1 [ispinesib (SB-715992), ispinesib, reference compound] |  |  |  |  | -0.29 |  | 91.86% |  | 207 | 205 | -43.2 | 1.81 |  |  |  |
| amodiaquine dihydrochloride [reference compound] |  | 88.75% | 101.86% | 186.68% | 20.16% |  | 78.80% |  |  |  |  |  | 21500 |  |  |
| c1ccc(CNc2nc(NCc3ccccc3)c3ccccc3n2)cc1 [DBeQ, reference compound] |  | 73.45% | 88.88% | -36.11% | -0.3 |  | 100.89% |  |  |  |  |  |  | 1.19 |  |
| c1cc2c(cc1C1CCCCC1)c1c3n2CCNC3CCC1 (centres unmarked) [tetrindole, reference compound] |  | 133.51% | 133.70% | -33.00% | -0.34% |  | 75.19% |  |  |  |  |  |  | 9.59 |  |
| CN1C[C@H](CNC(=O)OCc2ccccc2)C[C@@H]2c3cccc4c3c(cn4C)C[C@H]21 [metergoline, reference compound] |  |  |  |  | 0.05% |  | 54.65% |  | 61 | 73 | 103 |  |  |  |  |
| Cc1cc(Nc2ncc(Cl)c(Nc3ccccc3S(=O)(=O)C(C)C)n2)c(OC(C)C)cc1C1CCNCC1 [Ceritinib, reference compound] |  |  |  |  | -0.35% |  | 59.98% |  | 91.9 | 116 | 137 |  |  |  | 2.18 |
| CN(C)CC/C=C1/c2ccccc2Sc2ccc(Cl)cc21 [chlorprothixene hydrochloride, reference compound] |  |  |  |  | 0.27% |  | 55.65% |  | 124 | 113 | 192 |  |  |  | 2.36 |
| Cc1ccc(C(=O)N(CCCN)[C@@H](c2oc3cc(Cl)ccc3c(=O)c2Cc2ccccc2)C(C)C)cc1 [SB-743921, reference compound] |  |  |  |  | -0.36% |  | 78.89% |  | 172 | 224 | -43.6 |  |  |  | 2.49 |
| COc1ccc(NC(=O)c2ccc(-c3ccc(-c4noc(C)n4)cc3C)cc2)cc1OCCN(C)C [SB-216641, reference compound] |  | 93.22% | 104.74% | -42.60% | -0.22% |  | 57.65% |  |  |  |  |  |  | 1.19 |  |
| COc1cc2c(Nc3ccc(Br)cc3F)ncnc2cc1OCC1CCN(C)CC1 [Vandetanib (ZD6474), Vandetanib, reference compound] |  |  |  |  | 0.29 |  | 51.24 |  | 129 | 136 | -32.7 | 1.05 |  |  |  |
| CN(C)C(=O)C(CCN1CCC(O)(c2ccc(Cl)cc2)CC1)(c1ccccc1)c1ccccc1 [loperamide hydrochloride, reference compound] |  |  |  |  | 5.03% |  | 58.93% |  | 55 | 75.4 | 86.1 |  |  |  |  |
| COc1cc(C)c2c(Oc3cccc(C(F)(F)F)c3)c(OC)cc(NC(C)CCCN)c2n1 (centres unmarked) [tafenoquine, reference compound] | toxic | toxic | toxic | toxic | toxic | toxic | toxic | toxic |  |  |  |  |  |  |  |
| CNCc1ccc(C)c(NC(=O)c2ccc(Nc3nc(-c4ccccc4)c4ccccc4n3)cc2)c1 [BMS-833923 (XL139), reference compound] |  |  |  |  | -0.37 |  | 68.77% |  | 72.2 | 59.1 | -39.6 | 1.11 |  |  |  |
